Experimental data from PubChem BioAssay AID330 (DTP/NCI, 2004).
Several values for one entry are separate records, joined by “and”; a condition that tells them apart may be missing. Equal entries are not always repeated. Toxic doses and inconclusive results are not listed.

Tested on: P388 leukemia ip, CD2F1 mice, survival T/C
Assay: NCI In Vivo Anticancer Drug Screen. Data for tumor model P388 Leukemia (intraperitoneal) in CD2F1 (CDF1) mice
Settings: endpoint: median survival time, higher = longer survival
Method in brief: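 Mice carrying the transplanted tumor received test compound or vehicle. Survival was recorded in each group, and the value is the treated-group measurement divided by that of the vehicle-treated control group.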

[1] = dose: 50.0 mg/kg/injection, schedule: Q01DX009 (ip), vehicle: Klucel (hydroxypropylcellulose) (HPC)
[2] = dose: 100.0 mg/kg/injection, schedule: Q01DX009 (ip), vehicle: Klucel (hydroxypropylcellulose) (HPC)
[3] = dose: 200.0 mg/kg/injection, schedule: Q01DX009 (ip), vehicle: Klucel (hydroxypropylcellulose) (HPC)
[4] = dose: 60.0 mg/kg/injection, schedule: Q01DX005 (ip), vehicle: saline with Tween-80
[5] = dose: 120.0 mg/kg/injection, schedule: Q01DX005 (ip), vehicle: saline with Tween-80
[6] = dose: 240.0 mg/kg/injection, schedule: Q01DX005 (ip), vehicle: saline with Tween-80
[7] = dose: 12.5 mg/kg/injection, schedule: Q01DX009 (ip), vehicle: saline with Tween-80
[8] = dose: 25.0 mg/kg/injection, schedule: Q01DX009 (ip), vehicle: saline with Tween-80
[9] = dose: 50.0 mg/kg/injection, schedule: Q01DX005 (ip), vehicle: Klucel (hydroxypropylcellulose) (HPC)
[10] = dose: 100.0 mg/kg/injection, schedule: Q01DX005 (ip), vehicle: Klucel (hydroxypropylcellulose) (HPC)
[11] = dose: 50.0 mg/kg/injection, schedule: Q01DX009 (ip), vehicle: saline with Tween-80
[12] = dose: 100.0 mg/kg/injection, schedule: Q01DX009 (ip), vehicle: saline with Tween-80
[13] = dose: 50.0 mg/kg/injection, schedule: Q01DX005 (ip), vehicle: saline with Tween-80
[14] = dose: 100.0 mg/kg/injection, schedule: Q01DX005 (ip), vehicle: saline with Tween-80
[15] = dose: 200.0 mg/kg/injection, schedule: Q01DX005 (ip), vehicle: saline with Tween-80

For `O=C1c2ccc([N+](=O)[O-])cc2C(=O)N1CC[P+](c1ccccc1)(c1ccccc1)c1ccccc1`, the T/C (dose: 0.78 mg/kg/injection, schedule: Q01DX009 (ip), vehicle: water) was 100 % of control, the T/C (dose: 1.56 mg/kg/injection, schedule: Q01DX009 (ip), vehicle: water) was 100 % of control and the T/C (dose: 3.13 mg/kg/injection, schedule: Q01DX009 (ip), vehicle: water) was 103 % of control. For the same compound, the T/C (dose: 6.25 mg/kg/injection, schedule: Q01DX009 (ip), vehicle: water) was 98 % of control, the T/C (dose: 12.5 mg/kg/injection, schedule: Q01DX009 (ip), vehicle: water) was 98 % of control and the T/C (dose: 25.0 mg/kg/injection, schedule: Q01DX009 (ip), vehicle: water) was 106 % of control and 107 % of control.

`OC(CNC1CCCCC1)c1ccccc1` (stereo unspecified) was tested, and the T/C (dose: 6.25 mg/kg/injection, schedule: Q01DX009 (ip), vehicle: Klucel (hydroxypropylcellulose) (HPC)) was 98 % of control, the T/C (dose: 12.5 mg/kg/injection, schedule: Q01DX009 (ip), vehicle: Klucel (hydroxypropylcellulose) (HPC)) was 100 % of control and the T/C (dose: 25.0 mg/kg/injection, schedule: Q01DX009 (ip), vehicle: Klucel (hydroxypropylcellulose) (HPC)) was 95 % of control. The T/C [1] was 109 % of control.

For `OC12CCC(c3ccccc3)(CC1)CC2`, the T/C [1] was 104 % of control, the T/C [2] was 100 % of control and the T/C [3] was 100 % of control.

For `ClC(Cl)(Cl)C(c1ccc(Br)cc1)c1ccc(Br)cc1`, the T/C [4] was 95 % of control, the T/C [5] was 94 % of control and the T/C [6] was 95 % of control.

`Cn1c(=O)c2c(c3ccccc31)Oc1oc3ccc4ccccc4c3c(=O)c1C2` was tested, and the T/C [7] was 92 % of control and the T/C [8] was 90 % of control.

`Cc1cc2c(c(C#N)c1C)NC(=O)CN=C2c1ccccc1F` was tested, and the T/C [4] was 96 % of control, the T/C [5] was 98 % of control and the T/C [6] was 95 % of control.

For `CC(=O)NCCSSCCCCSSCCNC(C)=O`, the T/C [9] was 112 % of control and the T/C [10] was 112 % of control.

With `O=C(NC1C=Nc2ccc(Cl)cc2NC1=O)c1ccccc1Cl` (stereo unspecified) the T/C [4] was 92 % of control, the T/C [5] was 95 % of control and the T/C [6] was 100 % of control.

For `CC(=O)C1C(C)C(C(C)=O)N2C1SC1CCOC12C` (stereo unspecified), the T/C (dose: 10.0 mg/kg/injection, schedule: Q01DX001 (ip), vehicle: suspension in saline) was 106 % of control, the T/C (dose: 20.0 mg/kg/injection, schedule: Q01DX001 (ip), vehicle: suspension in saline) was 105 % of control and the T/C (dose: 40.0 mg/kg/injection, schedule: Q01DX001 (ip), vehicle: suspension in saline) was 101 % of control. The T/C (dose: 80.0 mg/kg/injection, schedule: Q01DX001 (ip), vehicle: suspension in saline) was 102 % of control.

In the case of `COC1/C=C/OC2(C)Oc3c(C)c(O)c4c(O)c(c(/C=N/N5CC(C)N(Cc6ccccc6)C(C)C5)c(O)c4c3C2=O)NC(=O)C(C)=C/C=C/C(C)C(O)C(C)C(O)C(C)C(OC(C)=O)C1C` (stereo unspecified), the T/C [7] is reported as 113 % of control, the T/C [8] is reported as 109 % of control and the T/C [11] is reported as 118 % of control and 124 % of control. For the same compound, the T/C [12] was 114 % of control.

For `CS(=O)(=O)OCC(Cc1ccccc1)N1C(=O)c2ccccc2C1=O` (stereo unspecified), the T/C (dose: 100.0 mg/kg/injection, schedule: Q01DX001 (ip), vehicle: saline with Tween-80) was 101 % of control, the T/C (dose: 200.0 mg/kg/injection, schedule: Q01DX001 (ip), vehicle: saline with Tween-80) was 100 % of control and the T/C (dose: 400.0 mg/kg/injection, schedule: Q01DX001 (ip), vehicle: saline with Tween-80) was 89 % of control.

With `O=C(Nc1ccc(Cl)c(Cl)c1)O/N=C/c1ccncc1` the T/C (dose: 50.0 mg/kg/injection, schedule: Q01DX009 (ip), vehicle: saline + alcohol) was 96 % of control, the T/C (dose: 100.0 mg/kg/injection, schedule: Q01DX009 (ip), vehicle: saline + alcohol) was 89 % of control and the T/C (dose: 200.0 mg/kg/injection, schedule: Q01DX009 (ip), vehicle: saline + alcohol) was 89 % of control.

`N#CC(C(=O)CCC(=O)C(C#N)c1ccccc1Cl)c1ccccc1Cl` (stereo unspecified) was tested, and the T/C [4] was 104 % of control, the T/C [5] was 114 % of control and the T/C [6] was 111 % of control.

`CN(C)Cc1cc(CN(C)C)c(O)c(CN(C)C)c1` was tested, and the T/C [11] was 88 % of control and the T/C [12] was 93 % of control.

In the case of `C1CCN2COCC2C1` (stereo unspecified), the T/C (dose: 12.5 mg/kg/injection, schedule: Q01DX005 (ip), vehicle: saline) is reported as 108 % of control, the T/C (dose: 25.0 mg/kg/injection, schedule: Q01DX005 (ip), vehicle: saline) is reported as 117 % of control and the T/C (dose: 100.0 mg/kg/injection, schedule: Q01DX005 (ip), vehicle: saline) is reported as 120 % of control and 122 % of control.

For `COc1ccc2[nH]c(=O)c(COC(C)=O)c(COC(C)=O)c2c1`, the T/C [9] was 87 % of control, the T/C [10] was 87 % of control and the T/C (dose: 200.0 mg/kg/injection, schedule: Q01DX005 (ip), vehicle: Klucel (hydroxypropylcellulose) (HPC)) was 97 % of control.

`Cc1ccc(C(O)(c2ccc(C)cc2)C2(O)CCCCC2)cc1` was tested, and the T/C [13] was 109 % of control, the T/C [14] was 100 % of control and the T/C [15] was 101 % of control.

`COc1cc2cc(c1Cl)N1CC(O)C(C)(O)C(=O)NC(C)C(=O)OC(CC1=O)C1(C)OC1C(C)C1CC(O)(NC(=O)O1)C(OC)/C=C\C=C(\C)C2OC` (stereo unspecified) was tested, and the T/C (dose: 7.75 micrograms/kg/injection, schedule: Q01DX009 (ip), vehicle: none) was 153 % of control and the T/C (dose: 15.5 micrograms/kg/injection, schedule: Q01DX009 (ip), vehicle: none) was 159 % of control.

With `Clc1ccc2nc3c(c(N4CCCCC4)c2c1)CCCC3` the T/C [13] was 105 % of control, the T/C [14] was 105 % of control and the T/C [15] was 100 % of control.

For `CCOC(OCC)c1ccc([N+](=O)[O-])cc1`, the T/C (dose: 100.0 mg/kg/injection, schedule: Q04DX003 (ip), vehicle: saline with Tween-80) was 106 % of control, the T/C (dose: 200.0 mg/kg/injection, schedule: Q04DX003 (ip), vehicle: saline with Tween-80) was 100 % of control and the T/C (dose: 400.0 mg/kg/injection, schedule: Q04DX003 (ip), vehicle: saline with Tween-80) was 117 % of control.

`CC(NC(=O)C(NC(=O)OCc1ccccc1)C(C)O)C(=O)OCc1ccccc1` (stereo unspecified) was tested, and the T/C [13] was 101 % of control, the T/C [14] was 92 % of control and the T/C [15] was 100 % of control.

In the case of `C1CCCc2c(-c3n[nH]c4c3CCCCCC4)n[nH]c2CC1`, the T/C [4] is reported as 100 % of control, the T/C [5] is reported as 95 % of control and the T/C [6] is reported as 100 % of control.

For `CNc1nncc(=O)[nH]1`, the T/C [1] was 107 % of control, the T/C [2] was 107 % of control and the T/C [3] was 99 % of control.

In the case of `COc1ccc(C(CCOS(=O)(=O)c2ccc(Br)cc2)(c2ccc(OC)cc2)c2ccc(OC)cc2)cc1`, the T/C [4] is reported as 93 % of control, the T/C [5] is reported as 93 % of control and the T/C [6] is reported as 87 % of control.

In the case of `COC(=O)C1C(=O)C(C(=O)OC)C2(C)C(C(=O)OC)C(=O)C(C(=O)OC)C12C` (stereo unspecified), the T/C (dose: 60.0 mg/kg/injection, schedule: Q01DX005 (ip), vehicle: Klucel (hydroxypropylcellulose) (HPC)) is reported as 103 % of control, the T/C (dose: 120.0 mg/kg/injection, schedule: Q01DX005 (ip), vehicle: Klucel (hydroxypropylcellulose) (HPC)) is reported as 102 % of control and the T/C (dose: 240.0 mg/kg/injection, schedule: Q01DX005 (ip), vehicle: Klucel (hydroxypropylcellulose) (HPC)) is reported as 103 % of control.

For `C=C(C)C12CC(C)C34OC5(OC1C3C1OC1(CO)C(O)C1(O)C(OC(=O)c3ccccc3)C(C)C(C(C)CCCCCCC5O)C14)O2` (stereo unspecified), the T/C (dose: 1.9 micrograms/kg/injection, schedule: Q01DX009 (ip), vehicle: distilled water + alcohol) was 102 % of control, the T/C (dose: 3.8 micrograms/kg/injection, schedule: Q01DX009 (ip), vehicle: distilled water + alcohol) was 115 % of control and the T/C (dose: 7.5 micrograms/kg/injection, schedule: Q01DX009 (ip), vehicle: distilled water + alcohol) was 120 % of control. The T/C (dose: 30.0 micrograms/kg/injection, schedule: Q01DX009 (ip), vehicle: distilled water + alcohol) was 152 % of control.

For `CC(C)OC(=O)C#N`, the T/C (dose: 1.56 mg/kg/injection, schedule: Q01DX005 (ip), vehicle: saline with Tween-80) was 100 % of control, the T/C (dose: 3.12 mg/kg/injection, schedule: Q01DX005 (ip), vehicle: saline with Tween-80) was 101 % of control and the T/C (dose: 6.25 mg/kg/injection, schedule: Q01DX005 (ip), vehicle: saline with Tween-80) was 100 % of control. For the same compound, the T/C (dose: 12.5 mg/kg/injection, schedule: Q01DX005 (ip), vehicle: saline with Tween-80) was 98 % of control.

`O=C(O)C(Cc1ccccc1)NC(c1ccccc1)P(=O)(O)O` (stereo unspecified) was tested, and the T/C [4] was 101 % of control, the T/C [5] was 99 % of control and the T/C [6] was 105 % of control.

For `N=c1c2c(C(N)=O)cn(C3OC(CO)C(O)C3O)c2ncn1N` (stereo unspecified), the T/C (dose: 50.0 mg/kg/injection, schedule: Q01DX005 (ip), vehicle: water) was 166 % of control.

`COc1ccc(C(=O)[Se][Se]C(=O)c2ccc(OC)cc2)cc1` was tested, and the T/C (dose: 6.25 mg/kg/injection, schedule: Q01DX009 (ip), vehicle: saline with Tween-80) was 100 % of control and the T/C [7] was 102 % of control.
